Test results published in ChEMBL document CHEMBL1127812, “Molecular modeling studies on ligand binding to sialidase from influenza virus and the mechanism of catalysis” (J Med Chem, 1994).

Molecular target: Neuraminidase (Influenza A virus (A/Puerto Rico/8/1934(H1N1)), UniProt P03468)
Sequence (P03468 whole entry): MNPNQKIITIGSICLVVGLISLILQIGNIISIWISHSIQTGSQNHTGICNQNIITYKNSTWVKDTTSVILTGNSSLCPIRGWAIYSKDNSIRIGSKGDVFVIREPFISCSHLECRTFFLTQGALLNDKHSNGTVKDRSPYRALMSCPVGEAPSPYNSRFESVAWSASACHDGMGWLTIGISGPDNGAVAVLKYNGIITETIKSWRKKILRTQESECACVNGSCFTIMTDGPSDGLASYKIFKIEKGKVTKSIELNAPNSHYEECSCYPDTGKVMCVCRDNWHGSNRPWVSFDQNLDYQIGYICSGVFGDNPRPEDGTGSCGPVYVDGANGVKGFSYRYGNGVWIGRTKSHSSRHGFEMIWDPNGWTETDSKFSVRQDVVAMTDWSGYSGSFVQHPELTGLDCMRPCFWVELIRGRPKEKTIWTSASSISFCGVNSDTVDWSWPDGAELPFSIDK
Description: inhibition of Influenza A Sialidase

Compound: CC(=O)NC1C(N)C=C(C(=O)O)OC1[C@H](O)[C@H](O)CO (stereo partly specified)
- Ki: 0.04 µM
